Test results from patent publication US6800101B2, “Deactivatable biocides for hydrocarbonaceous products” (priority 2001, dated 2004).

Experiments:
bacterial inoculum = assay: Neutralization of biocides with other nitrogen compounds; type: cell-based; details: for microbial growth: n-C16; for neutralizing 10 ppm of gluteraldehyde: two moles per mole gluteraldehyde
Description: The different nitrogen-containing compounds evaluated include the following:

alkane degrading culture = assay: Evaluation of biocides: growth inhibition on FT diesel and ALAD diesel; type: cell-based; as to microbial growth: key: −: No Growth; +: Growth (White Unless Otherwise Indicated)
Procedure: Growth Media: A standard minimal media containing only inorganic nutrients required for bacterial growth was used. The medium used to supply inorganic micronutrients to the growing culture of alkane degrading organisms consisted of 0.1 g/L MgSO4.7H2O, 0.5 g/L NaNO3, 0.02 millimolar FeSO4 and 0.63 g/L K2HPO4 and 0.19 g/L KH2PO4 to achieve a pH of 7 to 7.3.
Test Conditions: 90 ml of growth media and 10 ml of either FT diesel or low sulfur (ALAD) diesel was added to 250 ml flasks. […] In addition to 2 alkynes, glutaraldehyde (glutaric dialdehyde 50%), was tested. The following summarizes the test conditions:
Sterile control (media boiled prior to adding FT or ALAD, not inoculated)
Inculated control (no inhibitor)
100 ppm inhibitor (on a total test volume basis or 1000 ppm in diesel)
1% inhibitor (on a total test volume basis or 10% in diesel).
After inoculation, the flasks were place on a shaker-table (135 rpm) at room temperature and observed daily.

microbial growth = assay: Evaluation of lower amounts of water; type: cell-based; details: 100 ppm; 90% Fischer-Tropsch diesel fuel, 10% minimal media; after 16 days
Description: In this example, an experiment was done using a lower amount of water. 90% Fischer-Tropsch diesel fuel was mixed with 10% minimal media. One flask was used as a control and the other contained 100 ppm […].

bacteria = type: cell-based
in vivo = type: in vivo; details: Cyprinodon variegatus (sheepshead minnow), in vivo
Procedure: (§1) […]. EPA/600/4-90/027F Washington D.C. section 2.02, paragraph 1.) conducted at Pacific Eco-Risk Laboratories, Martinez, Calif.
(§2) LOEC is the Lowest Observable Effect Concentration and is defined as the minimum concentration where mortality is observed for the test species. […] LC-50, the concentration that will cause mortality of 50% of the organisms tested within 96 h, is a calculated value based on all observations.
(§3) The solutions were mixed for 48 hours prior to the start of the bioassays. The solutions were diluted to perform bioassays at starting glutaraldehyde concentrations of 100, 50, 37.5, 25, and 10, 5 mg/L

[1] = tested on: Larval Sheepshead Minnow (Cyprinodon variegatus); assay: in vivo; type: in vivo; details: for LOEC / NOEC: Cyprinodon variegatus (sheepshead minnow), in vivo, 96 h
Procedure: as §1, §2, §3

[2] = 10 ppm gluteraldehyde + two moles nitrogen compound per mole, day 0
[3] = 10 ppm gluteraldehyde + two moles nitrogen compound per mole, day 1
[4] = 10 ppm gluteraldehyde + two moles nitrogen compound per mole, day 2
[5] = 10 ppm gluteraldehyde + two moles nitrogen compound per mole, day 6
[6] = 10 ppm gluteraldehyde + two moles nitrogen compound per mole, day 7
[7] = 10 ppm gluteraldehyde + two moles nitrogen compound per mole, day 9
[8] = 10 ppm gluteraldehyde + two moles nitrogen compound per mole, day 13
[9] = 10 ppm gluteraldehyde + two moles nitrogen compound per mole, day 20
[10] = control: nitrogen compound without gluteraldehyde, day 0
[11] = control: nitrogen compound without gluteraldehyde, day 1
[12] = control: nitrogen compound without gluteraldehyde, day 2
[13] = control: nitrogen compound without gluteraldehyde, day 6
[14] = control: nitrogen compound without gluteraldehyde, day 7
[15] = control: nitrogen compound without gluteraldehyde, day 9
[16] = control: nitrogen compound without gluteraldehyde, day 13
[17] = control: nitrogen compound without gluteraldehyde, day 20
[18] = LA (ALAD) Diesel + 1 Wt %, Day 0
[19] = LA (ALAD) Diesel + 1 Wt %, Day 1
[20] = LA (ALAD) Diesel + 1 Wt %, Day 5
[21] = LA (ALAD) Diesel + 1 Wt %, Day 7
[22] = LA (ALAD) Diesel + 1 Wt %, Day 8
[23] = LA (ALAD) Diesel + 1 Wt %, Day 19
[24] = LA (ALAD) Diesel + 100 ppm, Day 0
[25] = LA (ALAD) Diesel + 100 ppm, Day 1
[26] = LA (ALAD) Diesel + 100 ppm, Day 5
[27] = LA (ALAD) Diesel + 100 ppm, Day 7
[28] = LA (ALAD) Diesel + 100 ppm, Day 8
[29] = LA (ALAD) Diesel + 100 ppm, Day 19

With `CCNCC` [diethylamine, Diethylamine] the “toxicity of the nitrogen-containing compound to microbial growth” value (“toxicity” for short) (bacterial inoculum) was “not excessively toxic”, the microbial growth (bacterial inoculum; [2]) was “−” and the microbial growth (bacterial inoculum; [3]) was “−”. The microbial growth (bacterial inoculum; [4]) was “−”, the microbial growth (bacterial inoculum; [5]) was “+” and the microbial growth (bacterial inoculum; [6]) was “+”. The microbial growth (bacterial inoculum; [7]) was “+”, the microbial growth (bacterial inoculum; [8]) was “+” and the microbial growth (bacterial inoculum; [9]) was “+”. The microbial growth (bacterial inoculum; [10]) was “−”, the microbial growth (bacterial inoculum; [11]) was “−” and the microbial growth (bacterial inoculum; [12]) was “−”. For the same compound, the microbial growth (bacterial inoculum; [13]) was “+”, the microbial growth (bacterial inoculum; [14]) was “+” and the microbial growth (bacterial inoculum; [15]) was “+”. The microbial growth (bacterial inoculum; [16]) was “+”, the microbial growth (bacterial inoculum; [17]) was “+” and the “neutralizing 10 ppm of gluteraldehyde” value (bacterial inoculum) was “effective”.

For `OCCNCCO` [DEA, Diethanolamine], the “toxicity” value (bacterial inoculum) was “not excessively toxic”, the microbial growth (bacterial inoculum; [2]) was “−” and the microbial growth (bacterial inoculum; [3]) was “+”. For the same compound, the microbial growth (bacterial inoculum; [4]) was “+”, the microbial growth (bacterial inoculum; [5]) was “+” and the microbial growth (bacterial inoculum; [6]) was “+”. The microbial growth (bacterial inoculum; [7]) was “+”, the microbial growth (bacterial inoculum; [8]) was “+” and the microbial growth (bacterial inoculum; [9]) was “+”. For the same compound, the microbial growth (bacterial inoculum; [10]) was “−”, the microbial growth (bacterial inoculum; [11]) was “−” and the microbial growth (bacterial inoculum; [12]) was “−”. For the same compound, the microbial growth (bacterial inoculum; [13]) was “+”, the microbial growth (bacterial inoculum; [14]) was “+” and the microbial growth (bacterial inoculum; [15]) was “+”. For the same compound, the microbial growth (bacterial inoculum; [16]) was “+”, the microbial growth (bacterial inoculum; [17]) was “+” and the “neutralizing 10 ppm of gluteraldehyde” value (bacterial inoculum) was “effective”.

With `C#CCO` [P, Propargyl alcohol] the microbial growth (alkane degrading culture; FT Diesel + 1 Wt %, Day 0) was “−”, the microbial growth (alkane degrading culture; FT Diesel + 1 Wt %, Day 1) was “−” and the microbial growth (alkane degrading culture; FT Diesel + 1 Wt %, Day 5) was “−”. The microbial growth (alkane degrading culture; FT Diesel + 1 Wt %, Day 7) was “−”, the microbial growth (alkane degrading culture; FT Diesel + 1 Wt %, Day 8) was “−” and the microbial growth (alkane degrading culture; FT Diesel + 1 Wt %, Day 19) was “−”. The microbial growth (alkane degrading culture; FT Diesel + 100 ppm, Day 0) was “−”, the microbial growth (alkane degrading culture; FT Diesel + 100 ppm, Day 1) was “−” and the microbial growth (alkane degrading culture; FT Diesel + 100 ppm, Day 5) was “−”. For the same compound, the microbial growth (alkane degrading culture; FT Diesel + 100 ppm, Day 7) was “+”, the microbial growth (alkane degrading culture; FT Diesel + 100 ppm, Day 8) was “+” and the microbial growth (alkane degrading culture; FT Diesel + 100 ppm, Day 19) was “+”. The microbial growth (alkane degrading culture; [18]) was “−”, the microbial growth (alkane degrading culture; [19]) was “−” and the microbial growth (alkane degrading culture; [20]) was “−”. The microbial growth (alkane degrading culture; [21]) was “−”, the microbial growth (alkane degrading culture; [22]) was “−” and the microbial growth (alkane degrading culture; [23]) was “−”. For the same compound, the microbial growth (alkane degrading culture; [24]) was “−”, the microbial growth (alkane degrading culture; [25]) was “−” and the colour of growth (alkane degrading culture; [26]) was “Yellow”. The microbial growth (alkane degrading culture; [26]) was “+”, the colour of growth (alkane degrading culture; [27]) was “Yellow” and the microbial growth (alkane degrading culture; [27]) was “+”. For the same compound, the colour of growth (alkane degrading culture; [28]) was “Yellow”, the microbial growth (alkane degrading culture; [28]) was “+” and the colour of growth (alkane degrading culture; [29]) was “Yellow”. The microbial growth (alkane degrading culture; [29]) was “+”.

For `C#CCCCC` [H, 1-hexyne], the microbial growth (microbial growth) was “no growth”, the microbial growth (alkane degrading culture; FT Diesel + 1 Wt %, Day 0) was “−” and the microbial growth (alkane degrading culture; FT Diesel + 1 Wt %, Day 1) was “−”. For the same compound, the microbial growth (alkane degrading culture; FT Diesel + 1 Wt %, Day 5) was “−”, the microbial growth (alkane degrading culture; FT Diesel + 1 Wt %, Day 7) was “−” and the microbial growth (alkane degrading culture; FT Diesel + 1 Wt %, Day 8) was “−”. For the same compound, the microbial growth (alkane degrading culture; FT Diesel + 1 Wt %, Day 19) was “−”, the microbial growth (alkane degrading culture; FT Diesel + 100 ppm, Day 0) was “−” and the microbial growth (alkane degrading culture; FT Diesel + 100 ppm, Day 1) was “−”. For the same compound, the microbial growth (alkane degrading culture; FT Diesel + 100 ppm, Day 5) was “+”, the microbial growth (alkane degrading culture; FT Diesel + 100 ppm, Day 7) was “+” and the microbial growth (alkane degrading culture; FT Diesel + 100 ppm, Day 8) was “+”. The microbial growth (alkane degrading culture; FT Diesel + 100 ppm, Day 19) was “+”, the microbial growth (alkane degrading culture; [18]) was “−” and the microbial growth (alkane degrading culture; [19]) was “−”. The microbial growth (alkane degrading culture; [20]) was “−”, the microbial growth (alkane degrading culture; [21]) was “−” and the microbial growth (alkane degrading culture; [22]) was “−”. The microbial growth (alkane degrading culture; [23]) was “−”, the microbial growth (alkane degrading culture; [24]) was “−” and the microbial growth (alkane degrading culture; [25]) was “−”. For the same compound, the microbial growth (alkane degrading culture; [26]) was “+”, the microbial growth (alkane degrading culture; [27]) was “+” and the microbial growth (alkane degrading culture; [28]) was “+”. The microbial growth (alkane degrading culture; [29]) was “+”.

In the case of `O=CCCCC=O` [G, glutaraldehyde], the microbial growth (bacteria) is reported as “no growth”, the LC50 at 96 h (in vivo) is reported as over 100 µg/mL and the LOEC [1] is reported as 25 mg/L. For the same compound, the NOEC [1] was 13 mg/L, the LC50 ([1]; second experiment, Glutaraldehyde 100 mg/L, MEA 125 mg/L, molar ratio 1:2, mixed 48 hours) was over 100 µg/mL and the effectiveness as biocide (alkane degrading culture; ALAD diesel fuel) was “effective at a lower concentration”. The microbial growth (alkane degrading culture; FT Diesel + 1 Wt %, Day 0) was “−”, the microbial growth (alkane degrading culture; FT Diesel + 1 Wt %, Day 1) was “−” and the microbial growth (alkane degrading culture; FT Diesel + 1 Wt %, Day 5) was “−”. The microbial growth (alkane degrading culture; FT Diesel + 1 Wt %, Day 7) was “−”, the microbial growth (alkane degrading culture; FT Diesel + 1 Wt %, Day 8) was “−” and the microbial growth (alkane degrading culture; FT Diesel + 1 Wt %, Day 19) was “−”. The microbial growth (alkane degrading culture; FT Diesel + 100 ppm, Day 0) was “−”, the microbial growth (alkane degrading culture; FT Diesel + 100 ppm, Day 1) was “−” and the microbial growth (alkane degrading culture; FT Diesel + 100 ppm, Day 5) was “−”. For the same compound, the microbial growth (alkane degrading culture; FT Diesel + 100 ppm, Day 7) was “−”, the microbial growth (alkane degrading culture; FT Diesel + 100 ppm, Day 8) was “−” and the microbial growth (alkane degrading culture; FT Diesel + 100 ppm, Day 19) was “+”. The effectiveness as biocide (alkane degrading culture; Fischer-Tropsch diesel fuel) was “effective at a lower concentration”, the microbial growth (alkane degrading culture; [18]) was “−” and the microbial growth (alkane degrading culture; [19]) was “−”. The microbial growth (alkane degrading culture; [20]) was “−”, the microbial growth (alkane degrading culture; [21]) was “−” and the microbial growth (alkane degrading culture; [22]) was “−”. For the same compound, the microbial growth (alkane degrading culture; [23]) was “−”, the microbial growth (alkane degrading culture; [24]) was “−” and the microbial growth (alkane degrading culture; [25]) was “−”. For the same compound, the microbial growth (alkane degrading culture; [26]) was “−”, the microbial growth (alkane degrading culture; [27]) was “−” and the microbial growth (alkane degrading culture; [28]) was “−”. The microbial growth (alkane degrading culture; [29]) was “−”.

In the case of `NCCO` [MEA, Monoethanolamine], the “toxicity” value (bacterial inoculum) is reported as “not excessively toxic”, the microbial growth (bacterial inoculum; [2]) is reported as “−” and the microbial growth (bacterial inoculum; [3]) is reported as “−”. For the same compound, the microbial growth (bacterial inoculum; [4]) was “−”, the microbial growth (bacterial inoculum; [5]) was “+” and the microbial growth (bacterial inoculum; [6]) was “+”. The microbial growth (bacterial inoculum; [7]) was “+”, the microbial growth (bacterial inoculum; [8]) was “+” and the microbial growth (bacterial inoculum; [9]) was “+”. The microbial growth (bacterial inoculum; [10]) was “−”, the microbial growth (bacterial inoculum; [11]) was “−” and the microbial growth (bacterial inoculum; [12]) was “−”. For the same compound, the microbial growth (bacterial inoculum; [13]) was “−”, the microbial growth (bacterial inoculum; [14]) was “+” and the microbial growth (bacterial inoculum; [15]) was “+”. For the same compound, the microbial growth (bacterial inoculum; [16]) was “+”, the microbial growth (bacterial inoculum; [17]) was “+” and the “neutralizing 10 ppm of gluteraldehyde” value (bacterial inoculum) was “effective”. For the same compound, the LOEC [1] was 1700 mg/L and the NOEC [1] was 1000 mg/L.

With `Nc1ccccc1` [aniline, Aniline] the “toxicity” value (bacterial inoculum) was “excessively toxic”, the microbial growth (bacterial inoculum; [2]) was “−” and the microbial growth (bacterial inoculum; [3]) was “−”. For the same compound, the microbial growth (bacterial inoculum; [4]) was “−”, the microbial growth (bacterial inoculum; [5]) was “−” and the microbial growth (bacterial inoculum; [6]) was “−”. For the same compound, the microbial growth (bacterial inoculum; [7]) was “−”, the microbial growth (bacterial inoculum; [8]) was “−” and the microbial growth (bacterial inoculum; [9]) was “−”.
